The data set concerns Artemia salina. The experiment in a line: Toxicity to Artemia salina after 24 hrs. Format: organism-based. The conditions noted are these: in vivo.

`C[C@@H]1C[C@@H]2OC(=O)C3=C2[C@H](CCC3)[C@@]12C[C@@H](c1ccoc1)OC2=O` [TEUCVIN]: the LC50 is on record as more than 500 ppm.

As for `C[C@@H]1C[C@@H](O)[C@@]23COC(=O)[C@@H]2CCC[C@@H]3[C@@]12C[C@@H](c1ccoc1)OC2=O`, the LC50 is more than 500 ppm.

Regarding `CC(=O)OC[C@@]12[C@@H](OC(C)=O)C[C@@H](C)[C@]3(C[C@H](c4ccoc4)OC3=O)[C@H]1CCC[C@]21CO1` [MONTANIN C], the median lethal concentration (LC50) was determined as 66.4 ppm.

As a reminder, the LC50 is the concentration that kills 50% of the test population. Low values mean a more lethal substance, high ones a less lethal substance.

Values taken from ChEMBL document CHEMBL1147299, “12-epi-teuscordonin and other neoclerodanes from Teucrium bicolor” (J Nat Prod, 1989).
